Target: Acetylcholinesterase (AChE) (Electrophorus electricus, UniProt O42275)
Type: biochemical

Chain of Acetylcholinesterase (AChE) (O42275 24-633): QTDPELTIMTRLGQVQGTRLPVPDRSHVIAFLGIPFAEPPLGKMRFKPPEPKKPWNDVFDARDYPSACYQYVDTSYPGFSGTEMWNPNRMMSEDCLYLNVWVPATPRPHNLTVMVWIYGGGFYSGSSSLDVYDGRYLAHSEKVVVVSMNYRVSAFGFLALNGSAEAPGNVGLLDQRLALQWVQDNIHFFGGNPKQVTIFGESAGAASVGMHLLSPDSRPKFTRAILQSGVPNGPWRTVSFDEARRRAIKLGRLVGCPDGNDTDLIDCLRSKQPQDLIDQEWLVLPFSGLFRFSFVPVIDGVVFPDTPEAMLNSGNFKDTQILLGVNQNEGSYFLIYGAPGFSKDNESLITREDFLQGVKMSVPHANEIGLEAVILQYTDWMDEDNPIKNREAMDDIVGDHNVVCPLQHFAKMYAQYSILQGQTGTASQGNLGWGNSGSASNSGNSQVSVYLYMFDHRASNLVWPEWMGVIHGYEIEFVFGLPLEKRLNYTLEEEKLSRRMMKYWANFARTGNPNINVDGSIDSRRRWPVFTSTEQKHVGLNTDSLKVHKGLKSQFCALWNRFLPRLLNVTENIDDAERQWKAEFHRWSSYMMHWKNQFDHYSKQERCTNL

Row | Compound | Interference with analysis of organophosphates
1 | CCNc1nc(Cl)nc(NC(C)C)n1 [atrazine] | no interference
2 | CCNc1nc(Cl)nc(NCC)n1 [simazine] | no interference

From patent publication US20150290612A1 (priority 2012, published 2015)
